From patent publication US20250084177A1, “ANTI-CD98 ANTIBODIES AND USES THEREOF” (HUAHUI HEALTH LTD., priority 2021, published 2025)

Target: T1, LAT1/CD98 heterodimer HAT complex (Homo sapiens, UniProt P08195+Q01650)
T1 construct: in the tumor cell lines earlier found to be highly sensitive to S1-F4 treatment; endogenous in cells
Experiment: Amino acid (HPG) uptake assay
Assay type: cell-based
Conditions: HepG2 and Raji cells; antibody 15 μg/ml, BCH 10 mM
Method: Cells were incubated with 15 μg/ml antibody for 24 hr in growth medium. Then they were equilibrated for 30 min at 37° C. with Met-free DMEM. HPG (Thermo Fisher Scientific) was added to the cells at a final concentration of 70 μM. […] After 2-3 hr, cells were washed with PBS and lysed with lysis buffer (1% SDS in 50 mM Tris-HCL, pH 8.0) with complete protease inhibitors (Roche). HPG in cell lysis was biotinylated according to manufacturer instructions (Thermo Fisher Scientific). Then cell lysis was transferred into 96 well plate (Nunc, MaxiSorp™) and incubated at 4° C. overnight. The amount of HGP in cell lysates was then detected by streptavidin-HRP (Thermo Fisher Scientific) in an ELISA-based assay.
Amino acid uptake assay was conducted to analyze the effect of S1-F4 in amino acid transport. L-Homopropargylglycine (HPG), a methionine mimic, was used as a traceable substrate for the LAT1 (L-type/large neutral amino acid transporter 1)/CD98 heterodimer HAT complex, and the LAT1/CD98 complex inhibitor BCH (2-amino-2-norbornane-carboxylic acid) was used as a positive control for disrupting transport function.

T1 sequence (P08195 103-630 limits assumed): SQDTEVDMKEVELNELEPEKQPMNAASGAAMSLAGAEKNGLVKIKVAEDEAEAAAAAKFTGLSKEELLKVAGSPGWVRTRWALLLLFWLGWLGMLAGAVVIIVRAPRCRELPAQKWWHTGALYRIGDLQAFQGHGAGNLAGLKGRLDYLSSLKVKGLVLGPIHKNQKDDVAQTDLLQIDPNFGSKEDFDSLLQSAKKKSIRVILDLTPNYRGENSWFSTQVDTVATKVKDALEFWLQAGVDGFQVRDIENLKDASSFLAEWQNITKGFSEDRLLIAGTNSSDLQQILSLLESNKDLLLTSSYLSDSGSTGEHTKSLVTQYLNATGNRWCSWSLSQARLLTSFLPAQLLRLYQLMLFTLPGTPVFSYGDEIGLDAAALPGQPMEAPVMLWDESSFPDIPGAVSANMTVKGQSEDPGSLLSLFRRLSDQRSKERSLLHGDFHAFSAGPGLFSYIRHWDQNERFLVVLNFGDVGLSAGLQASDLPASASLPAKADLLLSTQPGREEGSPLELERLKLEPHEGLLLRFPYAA
T1 sequence (Q01650 whole entry): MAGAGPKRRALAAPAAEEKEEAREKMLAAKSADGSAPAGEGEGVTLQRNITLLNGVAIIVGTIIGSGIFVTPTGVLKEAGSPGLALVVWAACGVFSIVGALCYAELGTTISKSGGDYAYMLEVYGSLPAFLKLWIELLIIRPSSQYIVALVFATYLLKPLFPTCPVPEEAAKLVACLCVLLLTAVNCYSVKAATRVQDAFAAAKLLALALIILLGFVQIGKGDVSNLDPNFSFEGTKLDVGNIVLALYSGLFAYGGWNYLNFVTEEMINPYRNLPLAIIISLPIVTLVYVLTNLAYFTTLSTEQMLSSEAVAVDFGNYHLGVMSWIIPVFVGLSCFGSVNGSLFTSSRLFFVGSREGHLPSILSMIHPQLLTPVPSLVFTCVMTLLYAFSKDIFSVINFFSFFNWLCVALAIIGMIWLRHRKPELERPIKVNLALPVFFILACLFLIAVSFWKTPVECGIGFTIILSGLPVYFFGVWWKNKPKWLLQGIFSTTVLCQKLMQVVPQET

HPG uptake / HAT complex transport activity: impaired HAT complex transport activity
Compound: NC1(C(=O)O)CC2CCC1C2 (stereo not shown) [BCH, 2-amino-2-norbornane-carboxylic acid]
